From patent publication US10272144B2, “Compositions for and methods of treating and preventing targeting tumor associated carbohydrate antigens” (Board of Trustees of the University of Arkansas, priority 2013, dated 2019)
Values joined by “and” are separate entries in the source; they are usually repeats but may differ in a detail not shown here. Equal entries are not always repeated. “Also recorded” adds a separate entry of the source.

Legend:
[1] = tested on: multiple-antigen peptide (MAP) version of P10s; test: ELISA of anti-P10s antibodies in sera/plasma of vaccinated subjects; format: in vivo, human; conditions: for Immunized plasma binding to MAP (ELISA): one line per subject
Experimental: IgM and IgG fractions of serum antibodies from the immunized patient bind to MAP form of P10s in ELISA assays. ELISA plates were coated with 1 μg/well of the P10s MAP peptide in carbonate-bicarbonate buffer overnight. Serial dilutions were added after blocking wells in PBS containing 0.5% FBS and 0.2% Tween 20 for 1 h at 37° C. Serum dilutions were incubated for two hours at 37° C. After washing, wells were incubated with HRP-conjugated mouse anti-human IgM and IgG for 1 hour at 37° C., then substrate was added and the reaction was stopped after 20 minutes. Plates were read by an ELISA reader at […]. Titers were estimated from absorbance-versus-dilution curves by linear regression. The intercept of the regression line for each subject's pre-immune serum was defined as the absorbance cutoff for determining end-point titer for that subject, and the dilution where each sample's regression line crossed the subject's absorbance cutoff was defined to be the sample's end-point titer. Extrapolation beyond one dilution below the minimum or above the maximum actual dilutions was not allowed. This procedure normalized each subject's pre-immune titer to be 1:100, and subjects with a 10-fold or greater increase in end-point titer over the 1:100 titer are considered responders.
ELISA plates were coated with MAP version of P10s and reactivity of two-fold serial dilutions of pre- and post-immune sera was detected by HRP-conjugated anti-human IgG (FIG. 7A) and IgM (FIG. 7B). The endpoint titers shown in FIG. 7A and FIG. 7B were estimated from absorbance-versus-dilution curves by linear regression. The intercept of the regression line for each subject's pre-immune serum was the value used as the absorbance cutoff for determining end-point titer for that subject, and the dilution where each sample's regression line crossed the subject's absorbance cutoff was defined to be the sample's end-point titer. Extrapolation beyond one dilution below the minimum or above the maximum actual dilutions was not allowed. This procedure normalized each subject's pre-immune titer to be 1:100.
The presence of anti-P10s antibodies in the sera of patients before and after vaccination was assessed with ELISA. ELISA plates were coated with 1 μg/well of the multiple-antigen peptide (MAP) version of P10s in carbonate-bicarbonate buffer (Sigma-Aldrich, St. Louis, Mo.) overnight. Serial 2-fold dilutions of plasma and serum samples, from 1:100 (dilution step 0) to a final dilution of 1:12800 (dilution step 7), were added after blocking wells with PBS containing 0.5% FBS and 0.2% Tween 20 (Blocking buffer) for 1 h at 37° C. Serum dilutions in blocking buffer were incubated for two hours at 37° C. After washing, wells were incubated with HRP-conjugated mouse anti-human IgM and IgG (Sigma-Aldrich) for 1 hour at 37° C. Then Tetramethylbenzidine substrate (Sigma-Aldrich) was added and the reaction was stopped after 20 minutes. Plates were read using an ELISA reader at […].
The resulting absorbance-versus-dilution curves were used to estimate normalized endpoint titers as follows. (1) A linear regression of absorbance versus dilution step was performed on the serial dilutions of each sample from each subject, in which dilution steps were numbered as described above. (2) The intercept of the regression line for each subject's pre-immune sample was the value used as the absorbance cutoff for determining the endpoint titers of all samples collected from that subject. (3) The dilution step where each sample's regression line crossed the subject's absorbance cutoff was determined and called X(c), and the normalized endpoint titer was estimated from X(c) as Titer=1:(100*2^X(c)). This procedure normalized each subject's pre-immune titer to be 1:100. […]

MCF-10A cells = test: Cytotoxicity of plasma on MCF-10A; format: cell-based, human; conditions: 10% plasma, 24 hours (up to 72 hours); non-tumorigenic line; FIG. 12
Experimental: Pictures were taken after 24 hours of incubation with 10% plasma of the indicated subjects.
(§1) Medium in control wells contained 10% FBS.

MCF-7 cells = test: Toxicity against MCF-7 cells; format: cell-based, human; conditions: other experiments
ZR-75-1 cells = test: Toxicity against ZR-75-1 cells; format: cell-based, human; conditions: other experiments
[2] = tested on: cancer cells (HCC1954 and MDA-MB-231); test: Immunized plasma toxicity on cancer cells (both cell lines); format: cell-based, human; conditions: one line per subject
From the text: as §1

MDA-MB-231 cells [3] = test: Sensitization of tumor cells to docetaxel toxicity by post-immune serum; format: cell-based, human; conditions: 5 hours pre-incubation, docetaxel 24 hours; IC50 differs from FBS and pre-immune (P 6.21E-08, 0.002); FIG. 9
Experimental: MDA-MB-231 cells were cultured in RPMI medium containing 10% FBS overnight. Medium was then replaced with one that contained either pre-immune serum or post-immune serum. FBS was used as control. After 5 hours of incubation, docetaxel was added in serial dilutions into wells. 24 hours later wells were washed and live cells were fixed, stained and counted. Percentage of survival was calculated as the ratio of cell number at a given drug dose to the cell number at the “0” drug dose. Prism 5 software was used to fit dose response curves using survival data. IC50 of each curve was calculated.
MDA-MB-231 cells were cultured in RPMI medium containing 10% FBS overnight. Medium was then replaced with one that contained pre or post-immune sera. FBS was used as control. After 5 hours of incubation docetaxel was added in serial dilutions into wells. 24 hours later wells were washed and live cells were fixed, stained and counted. Percentage of survival was calculated as the ratio of cell number at a given drug dose to the cell number at the “0” drug dose. Prism 5 software was used to fit dose response curves using survival data. IC50 of each curve was calculated.

HCC1954 cells [4] = test: Binding of serum IgG to HCC1954 cells (flow cytometry); format: cell-based, human; conditions: week 7 serum, 1:100 dilution; FIG. 14A
Experimental: (§2) HCC1954 cells were harvested with enzyme-free buffer, washed and incubated with pre-immune sera or post-immune sera collected from the patient at Week 7. Binding of IgG antibodies in the sera to HCC1954 cells was visualized with an FITC-conjugated mouse anti-human IgG. […] The dashed line histogram show binding of IgG from pre-immune serum to HCC1954 cells. The solid line histogram show binding of IgG from post-immune serum collected at week 7 to HCC1954 cells. 1:100 dilution of the serum was used for reactivity. FIG. 14B is a bar graph showing that serum from the patient collected 7 weeks post-immunization kills HCC1954 breast cancer cells in vitro. 1×10^4 cells were seeded in wells of 96-well plate in medium containing 10% FBS. […] Medium in control wells contained 10% FBS. Media were refreshed after 24 hours. 48 hours after addition of sera, supernatants were removed, cells fixed and stained with Crystal violet. Percentage of cytotoxicity was calculated based on cell number in control wells. Error bars represent SD based on three replications. The experiment was repeated three times. Two tail Student's t-test was used for comparison of means.

HCC1954 cells [5] = test: Serum cytotoxicity on HCC1954 cells (Example 5 patient); format: cell-based, human; conditions: week 7 serum, 10%, 48 hours; FIG. 14B
Experimental: as §2

HCC1954 cells [6] = test: Inhibition of migration of HCC1954 cells (transwell); format: cell-based, human; conditions: week 7 serum, 20 hours in transwells; FIG. 15
Experimental: Cells were starved overnight and then harvested and mixed with either pre-immune serum or postimmune serum. The cell-serum mixtures were incubated in transwells for 20 hours. The cells were then stained and those on the surface were wiped out. Migrated cells were then visualized under a light microscope and counted. Average over three replications with SD are shown.

MDA-MB-231 cells [7] = test: Apoptosis induction (annexin V/propidium iodide); format: cell-based, human; conditions: overnight incubation with sera; FIG. 16
Experimental: Cells were incubated with 10% FBS (control) or either pre-immune or post-immune sera overnight and then harvested and stained with annexin V-FITC (FL1) and propidium iodide (FL3). Quadrants J4, P4 and Q4 show apoptotic cells in control, pre-immune serum treated and post-immune serum treated cells, respectively.

[8] = tested on: stage IV breast cancer patients; test: Phase I trial: clinical response (disease progression); format: in vivo, human; conditions: one line per subject, concurrent chemotherapy
From the text: The P10s-PADRE vaccine was developed for, inter alia, treatment of breast cancer patients with high risk of disease relapse. In the Phase I trial, research participants were restricted to females with histological or cytological confirmed stage IV breast cancer. Women 18 years of age or older, of all races, with histologically or cytologically confirmed stage IV breast cancer were eligible, and subjects were enrolled after providing written, informed consent. Disease staging was done according to the American Joint Commission on Cancer (AJCC), sixth edition. The following eligibility criteria were used: The cancer may have been newly diagnosed metastatic or relapsed after primary or adjuvant therapy and must not have required a treatment change for 2 months. Treatments with anti-estrogen therapy or chemotherapy were allowed. The chemotherapy regimen could not contain steroids in the pre- or post-supportive-care medications. […] Subjects had to be immunocompetent as measured by responsiveness to two recall antigens by skin testing. […]

NK cells [9] = test: NK cell activation in vaccinated human patients; format: in vivo; conditions: human patients administered the vaccine
NK cells [10] = test: NK cell activation in mice; format: in vivo
[11] = tested on: metastatic HER2+ Breast Cancer; test: Clinical course of patient with metastatic HER2+ breast cancer (PET scans); format: in vivo, human; conditions: one patient, on continued Vinorelbine and Trastuzumab; after initial increased PET uptake
HLA-DR = conditions: cited from earlier work

In the case of “H-Trp-Arg-Tyr-Thr-Ala-Pro-Val-His-Leu-Gly-Asp-Gly-dAla-Lys-CHAla-Val-Ala-Ala-Trp-Thr-Leu-Lys-Ala-Ala-dAla-NH2 [P10s-PADRE]”, the “Immunized plasma binding to MAP (ELISA)” value ([1]; 300 μg peptide per vaccination) is reported as “Yes”, the “Immunized plasma binding to MAP (ELISA)” value ([1]; 500 μg peptide per vaccination) is reported as “Yes” and the “normalized endpoint titers, higher dose cohort vs lower dose cohort” value ([1]; 500 μg vs 300 μg, FIG. 10) is reported as “higher normalized endpoint titers”. For the same substance, the “anti-peptide IgG persistence” value ([1]; Example 5 patient) was “remained high”, the “anti-peptide IgM persistence” value ([1]; Example 5 patient) was “returned back to the baseline by week 19” and the “time course of anti-peptide IgM and IgG” value ([1]; Example 5 patient, FIG. 13) was “peaked at week seven”. For the same substance, the “IgG response to P10s MAP peptide form after immunization” value ([1]; all six subjects, FIG. 10) was “persistent IgG response”, the “IgG and IgM response to the vaccine” value ([1]; all subjects of Example 3, FIGS. 4, 5) was “All subjects displayed an IgG and IgM response” and the “increase of anti-peptide serum IgG normalized endpoint titer at week 7 compared to pre-immune” value ([1]; subject #2 (300 μg), lowest of range) was 31 folds. The “increase of anti-peptide serum IgG normalized endpoint titer at week 7 compared to pre-immune” value ([1]; subjects #5 and #6 (500 μg), highest of range) was 256 folds, the “persistence of anti-P10s titer” value ([1]; three subjects evaluated further) was “starts to drop one year after the last immunization” and the toxicity of plasma (MCF-10A cells) was “No toxicity”. The toxicity (MCF-7 cells) was “no toxicity”, the toxicity (ZR-75-1 cells) was “toxicity was observe” and the “Immunized plasma toxicity on cancer cells” value ([2]; 300 μg peptide per vaccination) was “Yes”. The “Immunized plasma toxicity on cancer cells” value ([2]; 500 μg peptide per vaccination, subject #5: high background toxicity in preimmune plasma) was “Yes (2×) and No†”, the “effect of pre-incubation with post-immunization serum on docetaxel toxicity” value (MDA-MB-231 cells [3]) was “sensitized tumor cells to docetaxel toxicity” and the “binding of vaccine-induced serum to cells” value (HCC1954 cells [4]) was “bound”. The “cell death on incubation with post-immunization serum” value (HCC1954 cells [5]) was “significant stimulation of cell death”, the migration of cells (HCC1954 cells [6]) was “inhibited the migration” and the apoptosis (MDA-MB-231 cells [7]) was “induced apoptosis”. For the same substance, the “Disease Progression” value ([8]; 300 μg peptide per vaccination) was “Stable; also recorded: Progressed”, the “Disease Progression” value ([8]; 500 μg peptide per vaccination) was “Stable” and the NK cell activation (NK cells [9]) was “NK cells were activated”. For the same substance, the NK cell activation (NK cells [10]) was “no NK activation” and the “lung lesions after vaccination” value [11] was “improvement of their lung lesions”.

For “dAla-Lys-CHAla-Val-Ala-Ala-Trp-Thr-Leu-Lys-Ala-Ala-dAla [PADRE]”, the “number of the 16 most common types of HLA-DR with which complexes are formed” value (HLA-DR) is listed as “at least 15”.
